Drawing on patent US20140213538A1, “LYSOPHOSPHATIDIC ACID RECEPTOR ANTAGONISTS” (InterMune, Inc., priority 2013, published 2014), this text covers EC50 for 25 compounds.

The target in the assay is T1, LPA/S1P GPCR of interest (Homo sapiens, UniProt Q92633).
T1 construct: host or cells: CHO
T1 sequence (Q92633 whole entry): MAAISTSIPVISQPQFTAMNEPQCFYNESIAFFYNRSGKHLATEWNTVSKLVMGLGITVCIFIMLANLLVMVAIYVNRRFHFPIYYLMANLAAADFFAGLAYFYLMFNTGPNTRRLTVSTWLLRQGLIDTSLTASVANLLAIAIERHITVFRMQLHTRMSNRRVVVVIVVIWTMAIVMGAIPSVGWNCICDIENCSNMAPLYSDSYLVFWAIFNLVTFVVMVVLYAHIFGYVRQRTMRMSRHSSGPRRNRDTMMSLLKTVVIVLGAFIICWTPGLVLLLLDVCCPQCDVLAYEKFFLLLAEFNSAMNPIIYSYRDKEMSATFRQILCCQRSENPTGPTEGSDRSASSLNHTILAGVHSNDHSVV
Kind of assay: Beta-Arrestin based assay (PathHunter). The assay is classed as cell-based. On the procedure: CMV promoter based DNA constructs expressing a fusion of the LPA/S1P GPCR of interest and ProLink™ tag were used to transfect EA Parental™ CHO cells (DiscoverX, Fremont, Calif.) using a FuGENE® transfection kit (Roche). Beta-Arrestin based assays were conducted 24-48 hrs post transfection using PathHunter® assay kits (DiscoverX, Fremont, Calif.). Agonist and antagonist assays were performed in quadruplicate in white 384 well plates. End point luminescence data were plotted and fit to a 4 parameter logistic function to obtain IC50 values. For antagonist assays, an IC80 concentration of agonist (LPA) equal to 0.5 micromolar was used.
On to `Cc1nsc(-c2cc3sc(-c4ccc(CC(=O)O)cc4C(F)(F)F)cc3s2)c1NC(=O)O[C@H](C)c1ccccc1` [IT337], for which the EC50 (usually the concentration giving half of the maximal effect) is > 500 nM.

The compound `Cc1noc(-c2ccc(-c3ccc(OC(C)C(=O)O)cc3)cc2)c1NC(=O)O[C@H](C)c1ccccc1` (single isomer, unassigned) [IT238] showed an EC50 of 50 to 500 nM.

For `CC(C)[C@H](NC(=O)C#Cc1ccc(-c2cnn(C)c2NC(=O)O[C@H](C)c2ccccc2)cc1)C(=O)O` [IT404], the EC50 is > 500 nM.

For the compound `C[C@@H](OC(=O)Nc1c(-c2ccc(-c3ncc(C(=O)O)s3)cc2)nnn1C)c1ccccc1` [IT209], the EC50 was > 500 nM.

Consider `Cc1nsc(-c2cc3sc(-c4ccc(C5(C(=O)O)CC5)c(S(C)(=O)=O)c4)cc3s2)c1NC(=O)O[C@H](C)c1ccccc1` [IT458], for which the EC50 is > 500 nM.

On to `Cc1nsc(-c2cc3sc(-c4ccc(C5(C(=O)O)CC5)c(F)c4F)cc3s2)c1NC(=O)O[C@H](C)c1ccccc1` [IT366], for which the EC50 was < 50 nM.

In the case of `C[C@@H](OC(=O)Nc1c(-c2cc3sc(-c4ccc(-c5nnc(C6(C(=O)O)CC6)o5)cc4)cc3s2)cnn1C)c1ccccc1` [IT217], the concentration giving a half-maximal response (EC50) was > 500 nM.

As for `COc1cc(-c2cc3sc(-c4cnn(C)c4NC(=O)O[C@H](C)c4ccccc4)cc3s2)cnc1C1(C(=O)O)CC1` [IT275], the EC50 lay in the range of 50 to 500 nM.

Compound `COc1cc(-c2cc3sc(-c4snc(C)c4NC(=O)O[C@H](C)c4ccccc4)cc3s2)ccc1C1(C(=O)O)CC1` [IT331] registered an EC50 of 50 to 500 nM.

`C[C@@H](OC(=O)Nc1c(-c2ccc(-c3ccc(OC(C)(C)C(=O)O)c(F)c3)cc2)oc2ccccc12)c1ccccc1` [IT504] had an EC50 of 50 to 500 nM.

For the compound `Cc1nsc(-c2cc3sc(-c4ccc5occ(C6(C(=O)O)CC6)c5c4)cc3s2)c1NC(=O)O[C@H](C)c1ccccc1` [IT352], the EC50 is > 500 nM.

In the case of `C[C@@H](OC(=O)Nc1c(-c2cc3sc(-c4cnc(C5(C(=O)O)CC5)s4)cc3s2)cnn1C)c1ccccc1` [IT249], the EC50 lay in the range of 50 to 500 nM.

In the case of `Cc1nsc(-c2cc3sc(-c4cc(Cl)c(CC(=O)O)cc4F)cc3s2)c1NC(=O)O[C@H](C)c1ccccc1` [IT205], the EC50 was > 500 nM.

On to `Cc1cc(C2(C(=O)O)CC2)ccc1-c1cc2sc(-c3snc(C)c3NC(=O)O[C@H](C)c3ccccc3)cc2s1` [IT361], for which the EC50 was < 50 nM.

With `Cc1cc(-c2cc3sc(-c4nnn(C)c4NC(=O)O[C@H](C)c4ccccc4)cc3s2)ccc1C1(C(=O)O)CC1` [IT324], the EC50 fell in the range of 50 to 500 nM.

For `C[C@@H](OC(=O)Nc1c(-c2cc3sc(-c4ccc(CC(=O)O)nc4)cc3s2)cnn1C)c1ccccc1` [IT214], the concentration giving a half-maximal response (EC50) was in the range of 50 to 500 nM.

For the compound `C[C@@H](OC(=O)Nc1c(-c2cc3sc(-c4cnc(C5(C(=O)O)CC5)c(F)c4)cc3s2)nnn1C)c1ccccc1` [IT393], the EC50 was < 50 nM.

As to `Cc1cc(C2(C(=O)O)CC2)c(F)cc1-c1cc2sc(-c3snc(C)c3NC(=O)O[C@H](C)c3ccccc3)cc2s1` [IT343], the EC50 was < 50 nM.

In the case of `Cc1cc(CC(=O)O)c(F)cc1-c1cc2sc(-c3snc(C)c3NC(=O)O[C@H](C)c3ccccc3)cc2s1` [IT252], the EC50 is > 500 nM.

As for `Cc1nsc(-c2cc3sc(C4CCC(C(=O)O)C4)cc3s2)c1NC(=O)O[C@H](C)c1ccccc1` (stereo partly shown) [IT276], the EC50 is > 500 nM.

As for `C[C@@H](OC(=O)Nc1c(-c2cc3sc(-c4ccc(CC(=O)O)cc4C(F)(F)F)cc3s2)nnn1C)c1ccccc1` [IT363], the EC50 was > 500 nM.

`C[C@@H](OC(=O)Nc1c(-c2ccc(-c3cnc(C4(C(=O)O)CC4)s3)cc2)nnn1C)c1ccccc1` [IT278] returned an EC50 of 50 to 500 nM.

In turn, `C[C@@H](OC(=O)Nc1c(-c2cc3sc(-c4ccc5occ(CC(=O)O)c5c4)cc3s2)cnn1C)c1ccccc1` [IT332] showed an EC50 of 50 to 500 nM.

`COc1cc(CC(=O)O)c(F)cc1-c1cc2sc(-c3snc(C)c3NC(=O)O[C@H](C)c3ccccc3)cc2s1` [IT382]: the EC50 is > 500 nM.

On to `Cc1cc(-c2cc3sc(-c4snc(C)c4NC(=O)O[C@H](C)c4ccccc4)cc3s2)ccc1C1(C(=O)O)CC1` [IT325], for which the EC50 fell in the range of 50 to 500 nM.
